Assay results reported in patent US8563717B2, “Adenine derivatives” (GlaxoSmithKline LLC, priority 2008, dated 2013).
Where a name gives a salt, the structure may show the parent alone.

Each molecule was assayed on Interferon-α (assay: Induction of Interferon-α using cryopreserved human PBMCs). Details: PBMC, 24 h incubation, normalised to 1 uM resiquimod, read-out: mean pEC50 for induction of IFN-α (converted).
Assay type: cell-based
Protocol: Assay for the Induction of Interferon-α Using Cryopreserved Human Peripheral Blood Mononuclear Cells (PBMCs)
Compounds were dissolved in DMSO. Serial 2-fold dilutions with DMSO were prepared and 0.25 μl dispensed into 384-well clear Greiner polypropylene plates.
Blood samples of up to 200 ml were obtained from healthy human donors. Whole blood in 25 ml volumes was overlaid onto 15 ml Ficoll gradients in Leucosep tubes, and centrifuged at 1000 g for 20 min. Cells in the band at the plasma/histopaque interface were carefully removed and washed twice with PBS (centrifuged at 400 g for 5 min to harvest). The final pellet was resuspended in freezing medium (90% Heat-inactivated serum, 10% DMSO) to a cell concentration of 4×10^7 cells/ml. The resuspended cells were then cryopreserved (frozen) using a rate controlled freezer, and stored at −140° C. for up to 4 months.
Immediately prior to assay, vials of cryopreserved (frozen) PBMCs were thawed rapidly in a water bath at 37° C. A 1:10 dilution of the cells in trypan blue was prepared and counted. The PBMCs were then diluted in growth media [RPMI 1640 containing 10% fetal calf serum (invitrogen), Penicillin+[…] (Gibco cat. #25030-024, 1:50), L-Glutamine 2 mM, and 1000 units/ml recombinant human IFN-gamma (Preprotech catalogue #300-02)] to a density of 1×10^6 cells/ml, and 50 ul/well dispensed to 384-well clear Greiner polypropylene plates containing 0.25 μl DMSO or test compound in 0.25 μl DMSO. […] Plates were incubated for 24 h at 37° C. in 5% CO2.
A multi-isoform immunoassay was used to quantify IFN-α in PBMC supernatants. Rabbit polyclonal antibody against human IFN-α (catalogue number 31101, Stratech Scientific) was diluted 1:10000 in assay buffer (RPMI 1640 containing 10% fetal calf serum, Invitrogen) and 20 μl was added to each well of an MSD (Meso-Scale Discovery) single small-spot 384-well GAR (goat anti-rabbit antibody coated) plate. The plate was incubated for 1 hour at room temperature with vigorous shaking. Following three washes with PBS, 20 μl of cell supernatant were added to each well of the plate. The plate was then incubated for 1 hour at room temperature with vigorous shaking. A pair of monoclonal antibodies to IFN-α (catalogue numbers 21100 and 21112, Stratech Scientific) were labelled with sulfo-TAG (MSD), diluted 1:1000 in assay buffer and 20 μl added to each well of the plate. The plate was further incubated for 1 hour at room temperature with vigorous shaking. Following three washes with PBS, 30 μl of x2 T buffer (MSD) was added to each well and the plate was read on an MSD Sector 6000 plate reader.
Data were normalised to internal plate controls of 1 uM resiquimod (n=16) and DMSO (n=16). pEC50 values were derived by 4-parameter curve fit with IRLS in ActivityBase, from 11-point, two-fold serial dilution of test compounds.
For `CCCCOc1nc(N)c2[nH]c(=O)n(CCCC3CCCN(C4CCCC4)C3)c2n1` (centres unmarked) [Example 50, 6-Amino-2-(butyloxy)-9-[3-(1-cyclopentyl-3-piperidinyl)propyl]-7,9-dihydro-8H-purin-8-one], the EC50 was < 1580 nM.
`CCCCOc1nc(N)c2[nH]c(=O)n(CCCC3CCCN(CC4CCCC4)C3)c2n1` (centres unmarked) [Example 51, 6-Amino-2-(butyloxy)-9-{3-[1-(cyclopentylmethyl)-3-piperidinyl]propyl}-7,9-dihydro-8H-purin-8-one hydrochloride] was tested, and the EC50 was < 1580 nM.
With `CCCCOc1nc(N)c2[nH]c(=O)n(CCCC3CCCN(CCC4CCCCC4)C3)c2n1` (centres unmarked) [Example 52, 6-Amino-2-(butyloxy)-9-{3-[1-(2-cyclohexylethyl)-3-piperidinyl]propyl}-7,9-dihydro-8H-purin-8-one] the EC50 was < 1580 nM.
With `CCC[C@H](C)Oc1nc(N)c2[nH]c(=O)n(CCCC3CCCNC3)c2n1` (stereo partly drawn) [Example 53, 6-Amino-2-{[(1S)-1-methylbutyl]oxy}-9-[3-(3-piperidinyl)propyl]-7,9-dihydro-8H-purin-8-one] the EC50 was < 1580 nM.
`CCC[C@H](C)Oc1nc(N)c2[nH]c(=O)n(CCCC3CCCN(CC)C3)c2n1` (stereo partly drawn) [Example 54, 6-Amino-9-[3-(1-ethyl-3-piperidinyl)propyl]-2-{[(1S)-1-methylbutyl]oxy}-7,9-dihydro-8H-purin-8-one] was tested, and the EC50 was < 1580 nM.
With `CCCCOc1nc(N)c2[nH]c(=O)n(CCCCC3CCCNC3)c2n1` (centres unmarked) [Example 55, 6-amino-2-(butyloxy)-9-[4-(3-piperidinyl)butyl]-7,9-dihydro-8H-purin-8-one] the EC50 was < 1580 nM.
`CCCCOc1nc(N)c2[nH]c(=O)n(CCCCC3CCCN(CC)C3)c2n1` (centres unmarked) [Example 56, 6-Amino-2-(butyloxy)-9-[4-(1-ethyl-3-piperidinyl)butyl]-7,9-dihydro-8H-purin-8-one] was tested, and the EC50 was < 1580 nM.
For `CCCCOc1nc(N)c2[nH]c(=O)n(CCCCC3CCCN(CCC)C3)c2n1` (centres unmarked) [Example 57, 6-Amino-2-(butyloxy)-9-[4-(1-propyl-3-piperidinyl)butyl]-7,9-dihydro-8H-purin-8-one], the EC50 was < 1580 nM.
With `CCCCOc1nc(N)c2[nH]c(=O)n(CCCCC3CCCN(C(C)C)C3)c2n1` (centres unmarked) [Example 58, 6-Amino-2-(butyloxy)-9-{4-[1-(1-methylethyl)-3-piperidinyl]butyl}-7,9-dihydro-8H-purin-8-one] the EC50 was < 1580 nM.
In the case of `CCCCOc1nc(N)c2[nH]c(=O)n(CCCCC3CCCN(CCCC)C3)c2n1` (centres unmarked) [Example 59, 6-Amino-2-(butyloxy)-9-[4-(1-butyl-3-piperidinyl)butyl]-7,9-dihydro-8H-purin-8-one], the EC50 was < 1580 nM.
With `CCCCOc1nc(N)c2[nH]c(=O)n(CCCCC3CCCN(CC(C)C)C3)c2n1` (centres unmarked) [Example 60, 6-Amino-2-(butyloxy)-9-{4-[1-(2-methylpropyl)-3-piperidinyl]butyl}-7,9-dihydro-8H-purin-8-one hydrochloride] the EC50 was < 1580 nM.
In the case of `CCCCOc1nc(N)c2[nH]c(=O)n(CCCCC3CCCN(CCC(C)C)C3)c2n1` (centres unmarked) [Example 61, 6-Amino-2-(butyloxy)-9-{4-[1-(3-methylbutyl)-3-piperidinyl]butyl}-7,9-dihydro-8H-purin-8-one], the EC50 was < 1580 nM.
With `CCCCOc1nc(N)c2[nH]c(=O)n(CCCCC3CCCN(C4CCCC4)C3)c2n1` (centres unmarked) [Example 62, 6-Amino-2-(butyloxy)-9-[4-(1-cyclopentyl-3-piperidinyl)butyl]-7,9-dihydro-8H-purin-8-one] the EC50 was < 1580 nM.
`CCCCOc1nc(N)c2[nH]c(=O)n(CCCCC3CCCN(CC4CCCC4)C3)c2n1` (centres unmarked) [Example 63, 6-Amino-2-(butyloxy)-9-{4-[1-(cyclopentylmethyl)-3-piperidinyl]butyl}-7,9-dihydro-8H-burin-8-one hydrochloride] was tested, and the EC50 was < 1580 nM.
For `CCCCOc1nc(N)c2[nH]c(=O)n(CCCCC3CCCN(CCC4CCCCC4)C3)c2n1` (centres unmarked) [Example 64, 6-Amino-2-(butyloxy)-9-{4-[1-(2-cyclohexylethyl)-3-piperidinyl]butyl}-7,9-dihydro-8H-burin-8-one], the EC50 was < 1580 nM.
In the case of `CCC[C@H](C)Oc1nc(N)c2[nH]c(=O)n(CCCCC3CCCNC3)c2n1` (stereo partly drawn) [Example 65, 6-Amino-2-{[(1S)-1-methylbutyl]oxy}-9-[4-(3-piperidinyl)butyl]-7,9-dihydro-8H-purin-8-one], the EC50 was < 1580 nM.
For `CCCCOc1nc(N)c2[nH]c(=O)n(CCCCCC3CCCNC3)c2n1` (centres unmarked) [Example 67, 6-Amino-2-(butyloxy)-9-[5-(3-piperidinyl)pentyl]-7,9-dihydro-8H-purin-8-one], the EC50 was < 1580 nM.
`CCCCOc1nc(N)c2[nH]c(=O)n(CCCCCC3CCCN(CC)C3)c2n1` (centres unmarked) [Example 68, 6-Amino-2-(butyloxy)-9-[5-(1-ethyl-3-piperidinyl)pentyl]-7,9-dihydro-8H-purin-8-one] was tested, and the EC50 was < 1580 nM.
In the case of `CCCCOc1nc(N)c2[nH]c(=O)n(CC3CCN(CCC)CC3)c2n1` [Example 70, 6-Amino-2-(butyloxy)-9-[(1-propyl-4-piperidinyl)methyl]-7,9-dihydro-8H-purin-8-one], the EC50 was < 1580 nM.
For `CCCCOc1nc(N)c2[nH]c(=O)n(CC3CCN(C(C)C)CC3)c2n1` [Example 71, 6-Amino-2-(butyloxy)-9-{[1-(1-methylethyl)-4-piperidinyl]methyl}-7,9-dihydro-8H-purin-8-one], the EC50 was < 1580 nM.
`CCCCOc1nc(N)c2[nH]c(=O)n(CC3CCN(CCCC)CC3)c2n1` [Example 72, 6-Amino-2-(butyloxy)-9-[(1-butyl-4-piperidinyl)methyl]-7,9-dihydro-8H-purin-8-one] was tested, and the EC50 was < 1580 nM.
For `CCCCOc1nc(N)c2[nH]c(=O)n(CC3CCN(CC(C)C)CC3)c2n1` [Example 73, 6-Amino-2-(butyloxy)-9-{[1-(2-methylpropyl)-4-piperidinyl]methyl}-7,9-dihydro-8H-purin-8-one], the EC50 was < 1580 nM.
In the case of `CCCCOc1nc(N)c2[nH]c(=O)n(CC3CCN(CCC(C)C)CC3)c2n1` [Example 74, 6-Amino-2-(butyloxy)-9-{[1-(3-methylbutyl)-4-piperidinyl]methyl}-7,9-dihydro-8H-purin-8-one], the EC50 was < 1580 nM.
In the case of `CCCCOc1nc(N)c2[nH]c(=O)n(CC3CCN(C4CCCC4)CC3)c2n1` [Example 75, 6-Amino-2-(butyloxy)-9-[(1-cyclopentyl-4-piperidinyl)methyl]-7,9-dihydro-8H-purin-8-one], the EC50 was < 1580 nM.
With `CCCCOc1nc(N)c2[nH]c(=O)n(CC3CCN(C4CCCCC4)CC3)c2n1` [Example 76, 6-Amino-2-(butyloxy)-9-[(1-cyclohexyl-4-piperidinyl)methyl]-7,9-dihydro-8H-purin-8-one] the EC50 was < 1580 nM.
With `CCC[C@H](C)Oc1nc(N)c2[nH]c(=O)n(CC3CCNCC3)c2n1` [Example 77, 6-Amino-2-{[(1S)-1-Methylbutyl]oxy}-9-(4-piperidinylmethyl)-7,9-dihydro-8H-purin-8-one] the EC50 was < 1580 nM.
`CCC[C@H](C)Oc1nc(N)c2[nH]c(=O)n(CC3CCN(CC)CC3)c2n1` [Example 78, 6-Amino-9-[(1-ethyl-4-piperidinyl)methyl]-2-{[(1S)-1-methylbutyl]oxy}-7,9-dihydro-8H-purin-8-one] was tested, and the EC50 was < 1580 nM.
`CCC[C@H](C)Oc1nc(N)c2[nH]c(=O)n(CC3CCN(C(C)C)CC3)c2n1` [Example 79, 6-Amino-2-{[(1S)-1-methylbutyl]oxy}-9-{[1-(1-methylethyl)-4-piperidinyl]methyl}-7,9-dihydro-8H-purin-8-one] was tested, and the EC50 was < 1580 nM.
With `CCCCOc1nc(N)c2[nH]c(=O)n(CCC3CCN(CCC)CC3)c2n1` [Example 80, 6-Amino-2-(butyloxy)-9-[2-(1-propyl-4-piperidinyl)ethyl]-7,9-dihydro-8H-purin-8-one] the EC50 was < 1580 nM.
In the case of `CCCCOc1nc(N)c2[nH]c(=O)n(CCC3CCN(CCCC)CC3)c2n1` [Example 82, 6-Amino-2-(butyloxy)-9-[2-(1-butyl-4-piperidinyl)ethyl]-7,9-dihydro-8H-purin-8-one], the EC50 was < 1580 nM.
For `CCCCOc1nc(N)c2[nH]c(=O)n(CCC3CCN(CC(C)C)CC3)c2n1` [Example 83, 6-Amino-2-(butyloxy)-9-{2-[1-(2-methylpropyl)-4-piperidinyl]ethyl}-7,9-dihydro-8H-purin-8-one], the EC50 was < 1580 nM.
`CCCCOc1nc(N)c2[nH]c(=O)n(CCC3CCN(C(CC)CC)CC3)c2n1` [Example 84, 6-Amino-2-(butyloxy)-9-{2-[1-(1-ethylpropyl)-4-piperidinyl]ethyl}-7,9-dihydro-8H-purin-8-one] was tested, and the EC50 was < 1580 nM.
